Results taken from patent publication US10173991B2, “Sulfone amide linked benzothiazole inhibitors of endothelial lipase” (BRISTOL-MYERS SQUIBB COMPANY, priority 2014, dated 2019).

Target: Endothelial lipase (EL) (Homo sapiens (Human), UniProt Q9Y5X9)
Assay: Endothelial lipase (EL) enzymatic assay with fluorescent substrate A10070 in DMPG vesicles
Format: biochemical
Conditions: not given
Outline: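 Substrate A10070 sits in sonicated DMPG vesicles at 0.11 mole fraction. Lipase and compound preincubated 30 min, 37° C, in HEPES pH 8.0 buffer with CaCl2.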

Endothelial lipase (EL), sequence (Q9Y5X9 21-500): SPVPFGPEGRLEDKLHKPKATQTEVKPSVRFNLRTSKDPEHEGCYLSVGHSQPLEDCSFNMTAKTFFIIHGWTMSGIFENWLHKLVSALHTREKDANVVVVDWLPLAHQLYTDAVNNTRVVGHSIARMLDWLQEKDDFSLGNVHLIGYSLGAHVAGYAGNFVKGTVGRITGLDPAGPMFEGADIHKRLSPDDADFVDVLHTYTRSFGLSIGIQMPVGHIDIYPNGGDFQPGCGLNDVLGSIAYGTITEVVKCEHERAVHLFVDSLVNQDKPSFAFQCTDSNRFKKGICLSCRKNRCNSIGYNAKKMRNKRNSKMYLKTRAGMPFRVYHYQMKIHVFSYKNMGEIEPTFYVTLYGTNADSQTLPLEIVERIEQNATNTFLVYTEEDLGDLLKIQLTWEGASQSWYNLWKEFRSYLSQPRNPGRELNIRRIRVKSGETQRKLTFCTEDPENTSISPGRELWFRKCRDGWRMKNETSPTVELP

SMILES	IC50 [nM]
COCCS(=O)(=O)C(C(=O)NCC(=O)NC1CC1)c1nc2cc(C(=O)N3CC(C)(OC)C3)c(F)cc2s1 (stereo not drawn) [Example 429, N-[(cyclopropyl-carbamoyl)methyl]-2-[6-fluoro-5-(3-methoxy-3-methylazetidine-1-carbonyl)-1,3-benzothiazol-2-yl}-2-(2-methoxyethane-sulfonyl)acetamide]	69
COCCNC(=O)c1ccc(-c2ccc3nc(C(C(=O)NCC(=O)NC4CC4)S(=O)(=O)c4ccccc4)sc3c2)cc1 (stereo not drawn) [Example 431, 4-{2-[(benzenesulfonyl) ({[(cyclopropyl-carbamoyl)methyl]carbamoyl})methyl]-1,3-benzothiazol-6-yl}-N-(2-methoxyethyl) benzamide]	3
O=C(CNC(=O)C(c1nc2ccc(-c3cncnc3)cc2s1)S(=O)(=O)c1ccccc1)NC1CC1 (stereo not drawn) [Example 432, 2-(benzenesulfonyl)-N-[(cyclopropyl-carbamoyl)methyl]-2-[6-(pyrimidin-5-yl)-1,3-benzothiazol-2-yl]acetamide]	61
O=C(CNC(=O)C(c1nc2ccc(-c3ccc(F)nc3)cc2s1)S(=O)(=O)c1ccccc1)NC1CC1 (stereo not drawn) [Example 434, 2-(benzenesulfonyl)-N-[(cyclopropyl-carbamoyl)methyl]-2-[6-(6-fluoropyridin-3-yl)-1,3-benzothiazol-2-yl] acetamide]	14
O=C(CNC(=O)C(c1nc2cc(-c3cncnc3)ccc2s1)S(=O)(=O)c1ccccc1)NC1CC1 (stereo not drawn) [Example 435, 2-(benzenesulfonyl)-N-[(cyclopropyl-carbamoyl)methyl]-2-[5-(pyrimidin-5-yl)-1,3-benzothiazol-2-yl]acetamide]	12
CC(=O)NCc1ccc(-c2ccc3sc(C(C(=O)NCC(=O)NC4CC4)S(=O)(=O)c4ccccc4)nc3c2)cc1 (stereo not drawn) [Example 436, 2-(benzenesulfonyl)-N-[(cyclopropyl-carbamoyl)methyl]-2-{5-[4-(acetamidomethyl)phenyl]-1,3-benzothiazol-2-yl} acetamide]	13
O=C(CNC(=O)C(c1nc2cc(-c3ccc(F)nc3)ccc2s1)S(=O)(=O)c1ccccc1)NC1CC1 (stereo not drawn) [Example 437, 2-(benzenesulfonyl)-N-[(cyclopropyl-carbamoyl)methyl]-2-[5-(6-fluoropyridin-3-yl)-1,3-benzothiazol-2-yl] acetamide]	13
Cc1cccc(S(=O)(=O)C(C(=O)NCC(=O)NC2CC2)c2nc3cc(-c4ccc(F)nc4)ccc3s2)c1 (stereo not drawn) [Example 438, N-[(cyclopropyl-carbamoyl)methyl]-2-[5-(6-fluoropyridin-3-yl)-1,3-benzothiazol-2-yl]-2-(3-methylbenzene-sulfonyl)acetamide]	33
Cn1ccc(-c2ccc3sc(C(C(=O)NCC(=O)NC4CC4)S(=O)(=O)c4ccccc4)nc3c2)cc1=O (stereo not drawn) [Example 439, 2-(benzenesulfonyl)-N-[(cyclopropyl-carbamoyl)methyl]-2-[5-(1-methyl-2-oxo-1,2-dihydropyridin-4-yl)-1,3-benzothiazol-2-yl]acetamide]	48
O=C(CNC(=O)C(c1nc2cc(F)c(-c3cncnc3)cc2s1)S(=O)(=O)c1ccccc1F)NC1CC1 (stereo not drawn) [Example 441, N-[(cyclopropyl-carbamoyl)methyl]-2-[5-fluoro-6-(pyrimidin-5-yl)-1,3-benzothiazol-2-yl]-2-(2-fluorobenzene-sulfonyl)acetamide]	87
CC(=O)NCc1ccc(-c2cc3sc(C(C(=O)NCC(=O)NC4CC4)S(=O)(=O)c4ccc(F)c(F)c4)nc3cc2F)cc1 (stereo not drawn) [Example 442, N-[(cyclopropyl-carbamoyl)methyl]-2-(3,4-difluorobenzene-sulfonyl)-2-{6-[4-(acetamidomethyl)phenyl]-5-fluoro-1,3-benzothiazol-2-yl}acetamide]	10
Cc1cc(-c2cc3sc(C(C(=O)NCC(=O)NC4CC4)S(=O)(=O)c4cccc(Cl)c4)nc3cc2F)cnn1 (stereo not drawn) [Example 443, 2-(3-chlorobenzene-sulfonyl)-N-[(cyclopropyl-carbamoyl)methyl]-2-[5-fluoro-6-(6-methylpyridazin-4-yl)-1,3-benzothiazol-2-yl}acetamide]	37
CC(=O)NCc1ccc(-c2cc3sc(C(C(=O)NCC(=O)NC4CC4)S(=O)(=O)c4cccc(Cl)c4)nc3cc2F)cc1 (stereo not drawn) [Example 444, 2-(3-chlorobenzene-sulfonyl)-N-[(cyclopropyl-carbamoyl)methyl]-2-{6-[4-(acetamidomethyl)phenyl]-5-fluoro-1,3-benzothiazol-2-yl}acetamide]	5
O=C(CNC(=O)C(c1nc2cc(F)c(-c3cncnc3)cc2s1)S(=O)(=O)c1ccc(F)c(F)c1)NC1CC1 (stereo not drawn) [Example 445, N-[(cyclopropyl-carbamoyl)methyl]-2-(3,4-difluorobenzene-sulfonyl)-2-[5-fluoro-6-(pyrimidin-5-yl)-1,3-benzothiazol-2-yl]acetamide]	59
O=C(CNC(=O)C(c1nc2cc(F)c(-c3cncnc3)cc2s1)S(=O)(=O)c1cccc(-c2cncnc2)c1)NC1CC1 (stereo not drawn) [Example 446, N-[(cyclopropyl-carbamoyl)methyl]-2-[5-fluoro-6-(pyrimidin-5-yl)-1,3-benzothiazol-2-yl]-2-[3-(pyrimidin-5-yl)benzenesulfonyl] acetamide]	78
O=C(CNC(=O)C(c1nc2ccc(-c3ccc4c(c3)CNC4=O)cc2s1)S(=O)(=O)c1ccc(F)cc1)NC1CC1 (stereo not drawn) [Example 447, N-[(cyclopropyl-carbamoyl)methyl]-2-(4-fluorobenzene-sulfonyl)-2-[6-(1-oxo-2,3-dihydro-1H-isoindol-5-yl)-1,3-benzothiazol-2-yl}acetamide]	9
O=C(CNC(=O)C(c1nc2ccc(-c3ccc(C(=O)N4CCOCC4)cc3)cc2s1)S(=O)(=O)c1ccc(F)cc1)NC1CC1 (stereo not drawn) [Example 448, N-[(cyclopropyl-carbamoyl)methyl]-2-(4-fluorobenzene-sulfonyl)-2-{6-[4-(morpholine-4-carbonyl)phenyl]-1,3-benzothiazol-2-yl}acetamide]	10
O=C(CNC(=O)C(c1nc2ccc(-c3ccccc3)cc2s1)S(=O)(=O)c1ccc(F)cc1)NC1CC1 (stereo not drawn) [Example 449, N-[(cyclopropyl-carbamoyl)methyl]-2-(4-fluorobenzene-sulfonyl)-2-(6-phenyl-1,3-benzothiazol-2-yl)acetamide]	16
COCCNC(=O)c1ccc(-c2ccc3nc(C(C(=O)NCC(=O)NC4CC4)S(=O)(=O)c4ccc(F)cc4)sc3c2)cc1 (stereo not drawn) [Example 450, 4-[2-({[(cyclopropyl-carbamoyl)methyl]carbamoyl}(4-fluorobenzene-sulfonyl)methyl)-1,3-benzothiazol-6-yl]-N-(2-methoxyethyl) benzamide]	19
O=C(CNC(=O)C(c1nc2ccc(-c3ccc4c(c3)C(=O)NC4)cc2s1)S(=O)(=O)c1ccc(F)cc1)NC1CC1 (stereo not drawn) [Example 451, N-[(cyclopropyl-carbamoyl)methyl]-2-(4-fluorobenzene-sulfonyl)-2-[6-(3-oxo-2,3-dihydro-1H-isoindol-5-yl)-1,3-benzothiazol-2-yl}acetamide]	39

Same assay, conditions: EL from conditioned media of HT-1080 cells; 30 min preincubation at 37° C.

SMILES	IC50 [nM]
O=C(CNC(=O)C(c1nc2ccc(-c3ccccc3)cc2s1)S(=O)(=O)c1ccccc1)NC1CC1 (stereo not drawn) [Example 430, 2-(Benzenesulfonyl)-N-[(cyclopropylcarbamoyl)methyl]-2-(6-phenyl-1,3-benzothiazol-2-yl)acetamide]	6.6
